This is an account of results in ChEMBL document CHEMBL1255225, “Antiviral activity of various 1-(2'-deoxy-β-D-lyxofuranosyl), 1-(2'-fluoro-β-D-xylofuranosyl), 1-(3'-fluoro-β-D-arabinofuranosyl), and 2'-fluoro-2',3'-didehydro-2',3'-dideoxyribose pyrimidine nucleoside analogues against duck hepatitis B virus (DHBV) and human hepatitis B virus (HBV) replication” (J Med Chem, 2010).

SMILES strings stand for the structures.

Data set [1] relates to Hepatitis B virus. The data set can be described thus: Antiviral activity against HBV assessed as inhibition of viral DNA replication. The format is functional, organism-based.
The subject of data set [2] is Hepatitis B virus. The data set can be described thus: Antiviral activity against HBV assessed as inhibition of viral DNA replication at 10 ug/mL. Format: functional. Also on record: scale not given: the % may be the effect or the level left.
For data set [3], the system named is Hepatitis B virus. In words: Antiviral activity against drug resistant HBV infected in M204I cells assessed as inhibition of viral DNA replication at 10 ug/mL. The format is functional. Also on record: scale not given: the % may be the effect or the level left.
Data set [4] is described as follows: Cytotoxicity against HuH7 cells. Format: cell-based, Huh-7. Conditions: human.
Data set [5] deals with Duck hepatitis B virus. The data set can be described thus: Antiviral activity against DHBV infected in duck hepatocytes assessed as inhibition of viral DNA replication. The format is functional, organism-based. Conditions: Hepatocyte.
In data set [6] the test system is Hepatitis B virus. In words: Antiviral activity against drug resistant HBV infected in M204I cells assessed as inhibition of viral DNA replication. The format is functional, organism-based.
The test system of data set [7] is Duck hepatitis B virus. The data set can be described thus: Antiviral activity against DHBV infected in duck hepatocytes assessed as inhibition of viral DNA replication at 10 ug/ml. The format is functional, Hepatocyte. Further details: scale not given: the % may be the effect or the level left.
For data set [8], the system named is Duck hepatitis B virus. The data set can be described thus: Antiviral activity against DHBV infected in duck hepatocytes assessed as inhibition of viral DNA replication relative to control. The format is functional, Hepatocyte. Further details: concentration or dose not given beside the values.
The subject of data set [9] is Hepatitis B virus. In words: Antiviral activity against HBV assessed as inhibition of viral DNA replication relative to control. Format: functional. Also on record: concentration or dose not given beside the values.
Data set [10] concerns Hepatitis B virus. In words: Antiviral activity against drug resistant HBV infected in M204I cells assessed as inhibition of viral DNA replication at 1 to 5 ug/mL. Format: functional. Also on record: scale not given: the % may be the effect or the level left.
Data set [11] deals with Duck hepatitis B virus. In words: Antiviral activity against DHBV infected in duck hepatocytes assessed as inhibition of viral DNA replication at 0.01 to 0.05 ug/mL. Format: functional, Hepatocyte. Further details: scale not given: the % may be the effect or the level left.
Data set [12] has as its system Hepatitis B virus. In words: Antiviral activity against HBV assessed as inhibition of viral DNA replication at 0.5 to 1 ug/mL. Format: functional. Further details: scale not given: the % may be the effect or the level left.
Data set [13] has as its system Duck hepatitis B virus. The data set can be described thus: Antiviral activity against DHBV infected in duck hepatocytes assessed as inhibition of viral DNA replication at 1 ug/ml. The format is functional, Hepatocyte. Further details: scale not given: the % may be the effect or the level left.
Data set [14] has as its system Hepatitis B virus. In words: Antiviral activity against HBV assessed as inhibition of viral DNA replication at 5 ug/mL. The format is functional. Also on record: scale not given: the % may be the effect or the level left.
The subject of data set [15] is Hepatitis B virus. The data set can be described thus: Antiviral activity against drug resistant HBV infected in M204I cells assessed as inhibition of viral DNA replication at 5 ug/mL. Format: functional. Also on record: scale not given: the % may be the effect or the level left.
In data set [16] the test system is Hepatitis B virus. In words: Antiviral activity against drug resistant HBV infected in M204I cells assessed as inhibition of viral DNA replication at 1 ug/mL. The format is functional. Also on record: scale not given: the % may be the effect or the level left.
Data set [17] has as its system Hepatitis B virus. In words: Antiviral activity against HBV assessed as inhibition of viral DNA replication at 1 ug/mL. Format: functional. Further details: scale not given: the % may be the effect or the level left.
The test system of data set [18] is Hepatitis B virus. The data set can be described thus: Antiviral activity against HBV assessed as inhibition of viral DNA replication at 0.5 ug/mL. Format: functional. Further details: scale not given: the % may be the effect or the level left.
In data set [19] the test system is Duck hepatitis B virus. The data set can be described thus: Antiviral activity against DHBV infected in duck hepatocytes assessed as inhibition of viral DNA replication at 0.05 ug/ml. Format: functional, Hepatocyte. Further details: scale not given: the % may be the effect or the level left.

With `CCc1cn([C@@H]2O[C@H](CO)C=C2F)c(=O)[nH]c1=O`, the EC50 in the data set on Hepatitis B virus [1], in the data set on Duck hepatitis B virus [5] and with Hepatitis B virus [6] was 39.1 µM throughout. Also, the Activity with Hepatitis B virus [2], in the data set with Hepatitis B virus [3] and in the data set on Duck hepatitis B virus [7] was 50% in each case. The CC50 in [4] was above 781 µM.
For `O=c1[nH]c(=O)n([C@H]2C[C@@H](O)[C@@H](CO)O2)cc1Br`, the Activity in the data set with Duck hepatitis B virus [8] and with Hepatitis B virus [9] was 0% throughout. This compound also gave a CC50 in data set [4] above 651 µM.
With `O=c1[nH]c(=O)n([C@H]2C[C@@H](O)[C@@H](CO)O2)cc1Cl`, the Activity turned out to be 15% in the data set with Hepatitis B virus [2] and 25% in the data set on Duck hepatitis B virus [7]. The compound also showed a CC50 in data set [4] above 763 µM.
Regarding `Nc1nc(NC2CC2)c2ncn([C@H]3C=C[C@@H](CO)C3)c2n1` [ABACAVIR], the Activity in the data set on Hepatitis B virus [10] is 80%. The EC50 with Hepatitis B virus [6] was below 2.6 µM.
Consider `O=c1[nH]c(=O)n([C@H]2C[C@H](O)[C@@H](CO)O2)cc1I` [IDOXURIDINE], for which the Activity in the data set on Duck hepatitis B virus [8] and in the data set on Hepatitis B virus [9] was 0% each time. The CC50 in [4] is above 282 µM.
Consider `O=c1ccn([C@H]2C[C@@H](O)[C@@H](CO)O2)c(=O)[nH]1`, for which the Activity in the data set with Duck hepatitis B virus [8] and in the data set with Hepatitis B virus [9] was 0% throughout. Also, the CC50 in data set [4] is above 877 µM.
For `O=c1ccn([C@@H]2O[C@H](CO)[C@@H](F)[C@@H]2O)c(=O)[nH]1`, the Activity with Hepatitis B virus [2] was 15%; in the data set with Duck hepatitis B virus [7], 25%. The CC50 in data set [4] was above 813 µM.
With `Nc1ccn([C@@H]2CS[C@H](CO)O2)c(=O)n1` [LAMIVUDINE], the Activity in the data set on Duck hepatitis B virus [11] is reported as 95%; in the data set with Hepatitis B virus [3], 40%; with Hepatitis B virus [12], 85%. The EC50 in the data set on Hepatitis B virus [1] was 0.22 µM; in the data set on Duck hepatitis B virus [5], below 0.044 µM; in the data set with Hepatitis B virus [6] it was above 44 µM. Also, the CC50 in data set [4] was above 873 µM.
Regarding `O=c1[nH]c(=O)n([C@H]2CC(O)[C@@H](CO)O2)cc1C(F)(F)F` (single isomer, unassigned) [TRIFLURIDINE], the EC50 came out at 33.7 µM with Hepatitis B virus [1], 3.37 µM in the data set on Duck hepatitis B virus [5] and 33.7 µM in the data set on Hepatitis B virus [6]. In addition, the Activity in the data set on Duck hepatitis B virus [13] is 50%; in the data set with Hepatitis B virus [2], 55%; in the data set on Hepatitis B virus [3] it was 50%; in the data set on Duck hepatitis B virus [7], 70%. For the same compound, the CC50 in [4] is above 675 µM.
Take `O=c1ccn([C@@H]2O[C@H](CO)[C@H](O)[C@H]2F)c(=O)[nH]1`: the Activity in the data set on Hepatitis B virus [2] worked out at 40%; with Duck hepatitis B virus [7] it was 50%. The same compound registered a CC50 in data set [4] above 813 µM. Besides, in the data set with Duck hepatitis B virus [5], the EC50 was found to be 40.6 µM.
Take `CCc1cn([C@H]2C[C@@H](O)[C@@H](CO)O2)c(=O)[nH]c1=O`: the Activity with Duck hepatitis B virus [8] and in the data set with Hepatitis B virus [9] was 0% throughout. This compound also returned a CC50 in data set [4] above 781 µM.
As to `Cc1cn([C@@H]2O[C@H](CO)[C@H](O)[C@H]2F)c(=O)[nH]c1=O`, the Activity in the data set with Hepatitis B virus [14] is reported as 50%; in the data set with Duck hepatitis B virus [13] it was 50%; in the data set on Hepatitis B virus [2], 60%; in the data set on Hepatitis B virus [15] it was 50%; with Duck hepatitis B virus [7], 72%. Further, the EC50 in the data set with Hepatitis B virus [1] amounted to 19.2 µM; in the data set on Duck hepatitis B virus [5] it was 3.84 µM; in the data set with Hepatitis B virus [6], 19.2 µM. In data set [4], this compound returned a CC50 above 769 µM.
In the case of `Cc1cn([C@@H]2O[C@H](CO)C=C2F)c(=O)[nH]c1=O`, the Activity with Hepatitis B virus [16] came to 50%; in the data set with Hepatitis B virus [17], 58%; with Hepatitis B virus [18] it was 50%; with Duck hepatitis B virus [13], 67%; in the data set on Hepatitis B virus [2], 85%; with Duck hepatitis B virus [7], 94%. For the same compound, the Activity in the data set on Duck hepatitis B virus [19] was 50%. Besides, the EC50 with Hepatitis B virus [1] was 2 µM; in the data set with Duck hepatitis B virus [5], 0.2 µM; in the data set on Hepatitis B virus [6], 4.1 µM. The compound further displayed a CC50 in [4] above 413 µM.
With `Cc1cn([C@@H]2O[C@H](CO)[C@@H](F)[C@@H]2O)c(=O)[nH]c1=O`, the Activity in the data set on Duck hepatitis B virus [8] and with Hepatitis B virus [9] was 0% throughout. Moreover, the CC50 in [4] was above 769 µM.
For `Nc1ncnc2c1ncn2[C@H]1CC(O)[C@@H](CO)O1` (single isomer, unassigned) [DEOXYADENOSINE], the Activity with Hepatitis B virus [2] was determined as 36%; in the data set with Duck hepatitis B virus [7] it was 40%.
With `Cc1cn([C@H]2C[C@@H](O)[C@@H](CO)O2)c(=O)[nH]c1=S`, the Activity in the data set with Duck hepatitis B virus [8] and in the data set on Hepatitis B virus [9] was 0% in each case. Besides, the CC50 in [4] is above 775 µM.
Regarding `O=c1[nH]c(=O)n([C@H]2CC(O)[C@@H](CO)O2)cc1F` (single isomer, unassigned) [FLOXURIDINE], the Activity in the data set on Duck hepatitis B virus [8] and in the data set with Hepatitis B virus [9] was 0% throughout. Moreover, the CC50 in data set [4] is above 813 µM.
For the compound `Cc1cn([C@H]2C[C@@H](O)[C@@H](CO)O2)c(=O)[nH]c1=O`, the values for the EC50 in the data set on Hepatitis B virus [1] and in the data set on Duck hepatitis B virus [5] were 41.3 µM and 4.13 µM, respectively. Further, the Activity was determined as 50% in the data set on Duck hepatitis B virus [13], 50% in the data set with Hepatitis B virus [2], 45% with Hepatitis B virus [3] and 65% in the data set with Duck hepatitis B virus [7]. Besides, the CC50 in data set [4] is above 826 µM.

What is called EC50 is the concentration that produces a half-maximal response. Broadly, the CC50 is the concentration at which the toxic effect on the cells reaches its halfway point.
